In patent US8273760B2, “Indolo[3,2-c]quinoline compounds” (Kaohsiung Medical University, priority 2008, dated 2012):
Counter-ions that a name gives are not always drawn. Like-named read-outs stand apart in the source and are kept apart here.

Experiments:
COLO 205 = assay: In vitro anticancer assay (NCI panel), COLO 205; assay type: cell-based; settings: Homo sapiens; COLO 205, colon cancer
Protocol: (§1) Selected compounds were evaluated in vitro against the NCI's full panel of 60 cancer cell lines derived from nine cancer cell types, including: leukemia (CCRF-CEM, HL-60 (TB), K-562, MOLT-4, RPMI-8226, and SR); non-small cell lung cancer (A549/ATCC, EKVX, HOP-62, HOP-92, NCI-H226, NCI-H23, NCI-H322M, and NCI-H522); colon cancer (COLO 205, HCC-2998, HCT-116, HCT-15, HT29, KM12, and SW-620); CNS cancer (SF-268, SF-295, SF-539, SNB-19, SNB-75, and U251); melanoma (LOX IMVI, MALME-3M, M14, SK-MEL-2, SK-MEL-28, SK-MEL-5, UACC-62, and UACC-257); ovarian cancer (IGROV1, OVCAR-3, OVCAR-4, OVCAR-5, OVCAR-8, and SK-OV-3); renal cancer (786-0, A498, ACHN, CAKI-1, RXF 393, SN12C, TK-10, and UO-31); prostate cancer (PC-3 and DU-145); and breast cancer (MCF7, MCF7/ADR-RES, MDA-MB-231/ATCC, HS 578T, MDA-MB-435, MDA-N, and T-47D). For each compound, dose-response curves for each cell line were measured with five different drug concentrations, and the concentration causing 50% cell growth inhibition (GI50) compared with the control was calculated. The mean GI50 values of each tested compound for all the 60 tumor cell lines were also calculated.

HCT-116 = assay: In vitro anticancer assay (NCI panel), HCT-116; assay type: cell-based; settings: Homo sapiens; HCT-116, colon cancer
Protocol: as §1

SR = assay: In vitro anticancer assay (NCI panel), SR; assay type: cell-based; settings: Homo sapiens, leukemia
Protocol: as §1

SK-MEL-2 = assay: In vitro anticancer assay (NCI panel), SK-MEL-2; assay type: cell-based; settings: Homo sapiens; SK-MEL-2, melanoma
Protocol: as §1

[1] = system: NCI's full panel of 60 cancer cell lines; assay: In vitro anticancer assay, all cell lines of the NCI panel; assay type: cell-based, human; settings: Homo sapiens
Protocol: as §1

PC-3 = assay: In vitro anticancer assay (NCI panel), PC-3; assay type: cell-based; settings: Homo sapiens; PC-3, prostate cancer
Protocol: as §1

OVCAR-8 = assay: In vitro anticancer assay (NCI panel), OVCAR-8; assay type: cell-based; settings: Homo sapiens; OVCAR-8, ovarian cancer
Protocol: as §1

SNB-19 = assay: In vitro anticancer assay (NCI panel), SNB-19; assay type: cell-based; settings: Homo sapiens; SNB-19, CNS cancer
Protocol: as §1

MDA-MB-435 = assay: In vitro anticancer assay (NCI panel), MDA-MB-435; assay type: cell-based; settings: Homo sapiens; MDA-MB-435, breast cancer
Protocol: as §1

SF-295 = assay: In vitro anticancer assay (NCI panel), SF-295; assay type: cell-based; settings: Homo sapiens; SF-295, CNS cancer
Protocol: as §1

SN12C = assay: In vitro anticancer assay (NCI panel), SN12C; assay type: cell-based; settings: Homo sapiens, renal cancer
Protocol: as §1

ACHN = assay: In vitro anticancer assay (NCI panel), ACHN; assay type: cell-based; settings: Homo sapiens, renal cancer
Protocol: as §1

786-0 = assay: In vitro anticancer assay (NCI panel), 786-0; assay type: cell-based; settings: Homo sapiens; 786-0, renal cancer
Protocol: as §1

SF-268 = assay: In vitro anticancer assay (NCI panel), SF-268; assay type: cell-based; settings: Homo sapiens; SF-268, CNS cancer
Protocol: as §1

DU-145 = assay: In vitro anticancer assay (NCI panel), DU-145; assay type: cell-based; settings: Homo sapiens; DU-145, prostate cancer
Protocol: as §1

NCI-H460 = assay: In vitro anticancer assay (NCI panel), NCI-H460; assay type: cell-based; settings: Homo sapiens; NCI-H460, non-small cell lung cancer
Protocol: as §1

HL-60 (TB) = assay: In vitro anticancer assay (NCI 60 cell line panel), HL-60 (TB); assay type: cell-based; settings: Homo sapiens, leukemia
Protocol: as §1

OVCAR-5 = assay: In vitro anticancer assay (NCI panel), OVCAR-5; assay type: cell-based; settings: Homo sapiens; OVCAR-5, ovarian cancer
Protocol: as §1

HOP-62 = assay: In vitro anticancer assay (NCI panel), HOP-62; assay type: cell-based; settings: Homo sapiens; HOP-62, non-small cell lung cancer
Protocol: as §1

LOX IMVI = assay: In vitro anticancer assay (NCI panel), LOX IMVI; assay type: cell-based; settings: Homo sapiens, melanoma
Protocol: as §1

A549/ATCC = assay: In vitro anticancer assay (NCI panel), A549/ATCC; assay type: cell-based; settings: Homo sapiens, non-small cell lung cancer
Protocol: as §1

OVCAR-3 = assay: In vitro anticancer assay (NCI panel), OVCAR-3; assay type: cell-based; settings: Homo sapiens; OVCAR-3, ovarian cancer
Protocol: as §1

MCF7 = assay: In vitro anticancer assay (NCI panel), MCF7; assay type: cell-based; settings: Homo sapiens; MCF7, breast cancer
Protocol: as §1

UACC-62 = assay: In vitro anticancer assay (NCI panel), UACC-62; assay type: cell-based; settings: Homo sapiens; UACC-62, melanoma
Protocol: as §1

MDA-MB-231/ATCC = assay: In vitro anticancer assay (NCI panel), MDA-MB-231/ATCC; assay type: cell-based; settings: Homo sapiens, breast cancer
Protocol: as §1

HT29 = assay: In vitro anticancer assay (NCI panel), HT29; assay type: cell-based; settings: Homo sapiens, HT-29; HT29, colon cancer
Protocol: as §1

K-562 = assay: In vitro anticancer assay (NCI panel), K-562; assay type: cell-based; settings: Homo sapiens, K562; K-562, leukemia
Protocol: as §1

telomerase = telomerase (Homo sapiens, UniProt O14746); assay: Telomeric Repeat Amplification Protocol (TRAP) assay, cell-free; settings: 0.5 μg total cell extract from H1299 human lung cancer cells, FIG. 1
[2] = mean values of over all cell lines tested, read-out: MG MID (mean GI50)

Chain of telomerase (O14746 whole entry): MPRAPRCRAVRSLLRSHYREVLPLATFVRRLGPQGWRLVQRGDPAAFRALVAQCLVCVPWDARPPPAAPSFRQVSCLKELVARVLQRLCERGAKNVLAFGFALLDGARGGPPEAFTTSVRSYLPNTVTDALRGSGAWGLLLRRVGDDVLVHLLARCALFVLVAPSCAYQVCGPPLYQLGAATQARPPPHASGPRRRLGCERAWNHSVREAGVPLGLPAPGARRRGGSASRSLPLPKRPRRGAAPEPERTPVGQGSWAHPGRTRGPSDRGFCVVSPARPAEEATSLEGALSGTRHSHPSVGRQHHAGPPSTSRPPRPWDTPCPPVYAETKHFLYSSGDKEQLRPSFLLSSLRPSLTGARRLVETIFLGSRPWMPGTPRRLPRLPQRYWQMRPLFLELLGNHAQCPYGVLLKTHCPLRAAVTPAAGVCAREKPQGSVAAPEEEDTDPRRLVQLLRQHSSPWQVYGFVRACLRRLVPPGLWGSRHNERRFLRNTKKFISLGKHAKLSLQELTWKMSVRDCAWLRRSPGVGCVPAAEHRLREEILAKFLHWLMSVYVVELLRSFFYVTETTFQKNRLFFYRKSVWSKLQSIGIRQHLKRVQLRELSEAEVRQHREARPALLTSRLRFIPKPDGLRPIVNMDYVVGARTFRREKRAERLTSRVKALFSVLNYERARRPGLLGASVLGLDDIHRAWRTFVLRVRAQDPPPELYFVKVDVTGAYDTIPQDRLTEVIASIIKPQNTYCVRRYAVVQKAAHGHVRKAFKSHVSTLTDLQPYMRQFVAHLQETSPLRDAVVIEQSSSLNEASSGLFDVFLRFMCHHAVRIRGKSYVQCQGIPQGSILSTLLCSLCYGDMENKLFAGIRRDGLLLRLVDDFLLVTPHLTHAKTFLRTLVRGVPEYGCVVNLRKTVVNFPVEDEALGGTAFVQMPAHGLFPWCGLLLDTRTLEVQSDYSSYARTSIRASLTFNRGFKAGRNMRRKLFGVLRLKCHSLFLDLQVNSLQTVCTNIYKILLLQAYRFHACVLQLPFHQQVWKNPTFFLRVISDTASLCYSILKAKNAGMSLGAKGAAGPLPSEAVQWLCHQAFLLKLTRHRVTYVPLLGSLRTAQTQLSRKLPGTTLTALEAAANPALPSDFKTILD

Compound | GI50 (COLO 205) | GI50 (HCT-116) | GI50 (SR) | GI50 (SK-MEL-2) | GI50 [1, 2] | GI50 (OVCAR-8) | GI50 (SNB-19) | GI50 (MDA-MB-435) | GI50 (SF-295) | GI50 (SN12C) | GI50 (ACHN) | GI50 (786-0) | GI50 (SF-268) | GI50 (DU-145) | GI50 (NCI-H460) | GI50 (HL-60 (TB)) | GI50 (OVCAR-5) | GI50 (HOP-62) | GI50 (LOX IMVI) | GI50 (A549/ATCC) | further results
Cl.OCCNCCNc1nc2ccccc2c2[nH]c3ccccc3c12 [Compound 9, 2-[2-(11H-Indolo[3,2-c]quinolin-6-ylamino)ethylamino]ethanol hydrochloride] | 1760 nM | 190 nM | 900 nM | 2250 nM | 1070 nM | 810 nM | 2100 nM | 1460 nM | 1410 nM | 1260 nM | 380 nM | 340 nM | 1360 nM | 740 nM | 1460 nM | 1310 nM | 580 nM | 370 nM | 440 nM | 980 nM | GI50 (PC-3): 880 nM; GI50 (OVCAR-3): 1310 nM; GI50 (MCF7): 1240 nM; melting point: 276 °C; GI50 (UACC-62): 2000 nM; GI50 (MDA-MB-231/ATCC): 1240 nM; GI50 (HT29): 560 nM; GI50 (K-562): 1550 nM
Cl.Nc1nc2ccccc2c2[nH]c3ccccc3c12 [Compound 7e, 11H-Indolo[3,2-c]quinolin-6-ylamine hydrochloride] | 1070 nM | 500 nM | 640 nM | 1540 nM | 1290 nM | 980 nM | 1100 nM | 940 nM | 1030 nM | 1240 nM | 480 nM | 1120 nM | 1970 nM | 1940 nM | 410 nM | 1980 nM | 1840 nM | 1130 nM | 1050 nM | 1090 nM | GI50 (OVCAR-3): 1420 nM; GI50 (MCF7): 1190 nM; melting point: 377 to 378 °C; GI50 (UACC-62): 13500 nM; GI50 (MDA-MB-231/ATCC): 1220 nM; GI50 (HT29): 510 nM; GI50 (K-562): 620 nM
Cl.OCCNc1nc2ccccc2c2[nH]c3ccccc3c12 [Compound 7d, 2-(11H-indolo[3,2-c]quinolin-6-ylamino)ethanol hydrochloride] | 310 nM | 230 nM | 210 nM | 570 nM | 460 nM | 360 nM | 410 nM | 410 nM | 450 nM | 220 nM | 160 nM | 450 nM | 560 nM | 690 nM | 290 nM | 560 nM | 1030 nM | 580 nM | 360 nM | 410 nM | GI50 (OVCAR-3): 470 nM; GI50 (MCF7): 370 nM; melting point: 344 to 345 °C; GI50 (UACC-62): 1150 nM; GI50 (MDA-MB-231/ATCC): 430 nM; GI50 (HT29): 280 nM; GI50 (K-562): 460 nM
c1ccc2c(c1)nc(NCCN1CCNCC1)c1c3ccccc3[nH]c21 (as salt: hydrochloride) [Compound 5, N-(11H-Indolo[3,2-c]quinolin-6-yl)-2-(piperazin-1-yl)ethanamine] |  |  |  |  |  |  |  |  |  |  |  |  |  |  |  |  |  |  |  |  | melting point: 210 to 211 °C
CN(CCCNc1nc2ccccc2c2[nH]c3ccccc3c12)CCCNc1nc2ccccc2c2[nH]c3ccccc3c12.Cl [Compound 8b, N,N-bis-[3-(11H-indolo[3,2-c]quinolin-6-yl)aminopropyl]-N-methylamine hydrochloride] | 20 nM | < 10 nM | < 10 nM | 70 nM | < 20 nM | < 10 nM | < 10 nM | 110 nM | < 10 nM | < 10 nM | 20 nM | < 10 nM | < 10 nM | 50 nM | < 10 nM | < 10 nM | 80 nM | < 10 nM | < 10 nM | < 10 nM | GI50 ([1]; span over the cell lines of Table 2, read-out: GI50 value for each cell line (span over the cell lines)): 10 to 110 nM; GI50 (PC-3): 70 nM; GI50 (OVCAR-3): 50 nM; GI50 (MCF7): < 10 nM; GI50 (UACC-62): 60 nM; concentration that completely inhibited telomerase activity (telomerase): approximately 0.02 nM; GI50 (MDA-MB-231/ATCC): 90 nM; GI50 (HT29): < 10 nM; GI50 (K-562): < 10 nM
